# Results taken from patent US7728003B2, “5-oxo-5,8-dihydro-pyrido-pyrimidines as inhibitors of c-fms kinase” (Janssen Pharmaceutica N.V., priority 2005, dated 2010).
# Biological target: c-fms (Homo sapiens, UniProt P07333)
# Assay: c-fms autophosphorylation, fluorescence polarization competition immunoassay
# Type: biochemical
# Details: 10 nM c-fms, 1 mM ATP; for inhibition at 0.1 µM: test concentration 0.1 μM, read-out: c-fms Autophosphorylation Percent Inhibition, % @ 0.1 μM; for inhibition at 1 µM: test concentration 1 μM, read-out: c-fms Autophosphorylation Percent Inhibition, % @ 1 μM
# Protocol: The assay buffer used was 100 mM 4-(2-hydroxyethyl)piperazine 1-ethanesulfonic acid (HEPES), pH 7.5, 1 mM 1,4-dithio-DL-threitol (DTT), 0.01% (v/v) Tween-20. Compounds were diluted in assay buffer containing 4% dimethylsulfoxide (DMSO) just prior to the assay. To each well, 5 μL of compound were added followed by the addition of 3 μL of a mix containing 33 nM c-fms and 16.7 mM MgCl2 (Sigma) in assay buffer. The kinase reaction was initiated by adding 2 μL of 5 mM ATP (Sigma) in assay buffer. The final concentrations in the assay were 10 nM c-fms, 1 mM ATP, 5 mM MgCl2, 2% DMSO. Control reactions were ran in each plate: in positive and negative control wells, assay buffer (made 4% in DMSO) was substituted for the compound; in addition, positive control wells received 1.2 μL of 50 mM ethylenediaminetetraaceticacid (EDTA).
# The plates were incubated at room temperature for 45 min. At the end of the incubation, the reaction was quenched with 1.2 μL of 50 mM EDTA (EDTA was not added to the positive control wells at this point; see above). Following a 5-min incubation, each well received 10 μL of a 1:1:3 mixture of anti-phosphotyrosine antibody, 10X, PTK green tracer, 10X (vortexed), FP dilution buffer, respectively (all from PanVera, cat. # P2837). The plate was covered, incubated for 30 min at room temperature and the fluorescence polarization was read on the Analyst. The instrument settings were: 485 nm excitation filter; 530 nm emission filter; Z height: middle of well; G factor: 0.93.
# The percent inhibition is shown in Table 1 at the indicated test concentration. The IC50 shown in Table 2 are averages of three independent measurements.
# c-fms, sequence (P07333 20-972): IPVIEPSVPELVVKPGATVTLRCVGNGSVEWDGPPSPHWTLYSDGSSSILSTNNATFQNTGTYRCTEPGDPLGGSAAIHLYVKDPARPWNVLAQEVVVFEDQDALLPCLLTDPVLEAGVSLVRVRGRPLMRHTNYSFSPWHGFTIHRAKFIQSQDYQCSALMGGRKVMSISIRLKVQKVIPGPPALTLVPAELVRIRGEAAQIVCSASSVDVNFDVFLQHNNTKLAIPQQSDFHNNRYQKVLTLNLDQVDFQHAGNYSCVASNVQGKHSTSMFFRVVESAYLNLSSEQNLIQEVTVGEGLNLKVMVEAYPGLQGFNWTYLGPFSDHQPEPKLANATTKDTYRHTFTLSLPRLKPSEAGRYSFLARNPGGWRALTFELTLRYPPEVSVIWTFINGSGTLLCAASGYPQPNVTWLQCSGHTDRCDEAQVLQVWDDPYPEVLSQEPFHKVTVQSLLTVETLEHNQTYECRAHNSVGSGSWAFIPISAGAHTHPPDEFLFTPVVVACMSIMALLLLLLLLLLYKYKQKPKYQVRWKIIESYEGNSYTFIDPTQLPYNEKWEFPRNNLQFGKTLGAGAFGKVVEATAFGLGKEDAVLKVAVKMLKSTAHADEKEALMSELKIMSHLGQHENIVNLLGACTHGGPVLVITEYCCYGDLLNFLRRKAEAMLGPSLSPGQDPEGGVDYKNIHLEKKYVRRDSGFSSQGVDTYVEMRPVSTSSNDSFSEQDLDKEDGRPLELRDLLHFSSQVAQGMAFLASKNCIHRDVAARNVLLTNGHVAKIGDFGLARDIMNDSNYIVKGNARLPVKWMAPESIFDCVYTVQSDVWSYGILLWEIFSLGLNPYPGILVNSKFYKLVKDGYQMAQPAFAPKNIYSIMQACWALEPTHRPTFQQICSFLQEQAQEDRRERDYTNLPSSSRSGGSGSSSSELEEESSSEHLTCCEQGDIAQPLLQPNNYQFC
inhibition at 0.1 µM,inhibition at 1 µM,Compound
5%,11%,"CNC(=O)c1cn(C2CCCCC2)c2nc(NCCN3CCCCC3)ncc2c1=O [Cpd 59, 8-Cyclohexyl-5-oxo-2-(2-piperidin-1-yl-ethylamino)-5,8-dihydro-pyrido[2,3-d]pyrimidine-6-carboxylic acid methylamide]"
12%,18%,"CNC(=O)c1cn(C2CCCCC2)c2nc(NCCN3CCOCC3)ncc2c1=O [Cpd 60, 8-Cyclohexyl-2-(2-morpholin-4-yl-ethylamino)-5-oxo-5,8-dihydro-pyrido[2,3-d]pyrimidine-6-carboxylic acid methylamide]"
3%,21%,"CNC(=O)c1cn(C2CCCCC2)c2nc(NCc3cc(OC)cc(OC)c3)ncc2c1=O [Cpd 61, 8-Cyclohexyl-2-(3,5-dimethoxy-benzylamino)-5-oxo-5,8-dihydro-pyrido[2,3-d]pyrimidine-6-carboxylic acid methylamide]"

# More lines, now with the values behind:
Compound,inhibition at 0.1 µM,inhibition at 1 µM
"CNC(=O)c1cn(C2CCCCC2)c2nc(NCCCN3CCOCC3)ncc2c1=O [Cpd 55, 8-Cyclohexyl-2-(3-morpholin-4-yl-propylamino)-5-oxo-5,8-dihydro-pyrido[2,3-d]pyrimidine-6-carboxylic acid methylamide]",13%,23%
"CNC(=O)c1cn(C2CCCCC2)c2nc(NCCCOC)ncc2c1=O [Cpd 56, 8-Cyclohexyl-2-(3-methoxy-propylamino)-5-oxo-5,8-dihydro-pyrido[2,3-d]pyrimidine-6-carboxylic acid methylamide]",6%,23%
"CNC(=O)c1cn(C2CCCCC2)c2nc(NCCOC)ncc2c1=O [Cpd 57, 8-Cyclohexyl-2-(2-methoxy-ethylamino)-5-oxo-5,8-dihydro-pyrido[2,3-d]pyrimidine-6-carboxylic acid methylamide]",16%,20%
"CNC(=O)c1cn(C2CCCCC2)c2nc(NCCc3ccc(OC)cc3)ncc2c1=O [Cpd 58, 8-Cyclohexyl-2-[2-(4-methoxy-phenyl)-ethylamino]-5-oxo-5,8-dihydro-pyrido[2,3-d]pyrimidine-6-carboxylic acid methylamide]",13%,26%
